Assay results as given in US20160082133A1, “CHEMICAL EXCHANGE SATURATION TRANSFER (CEST) BASED MRI USING REPORTER GENES AND SUBSTRATES AND METHODS THEREOF” (The Johns Hopkins University, priority 2013, published 2016).

Experiments:
Dm-dNK = molecular target: T1, Dm-dNK (Drosophila melanogaster, UniProt Q9XZT6); assay: Fluorescence of cell lysates after incubation with pyrrolo-dC; assay type: cell-based, rat; details: 2 mM, 4 hours
T1 construct: expressed in transfected cells; host or cells: 9L rat glioma cells transfected with a pcDNA vector
T1 sequence (Q9XZT6 whole entry): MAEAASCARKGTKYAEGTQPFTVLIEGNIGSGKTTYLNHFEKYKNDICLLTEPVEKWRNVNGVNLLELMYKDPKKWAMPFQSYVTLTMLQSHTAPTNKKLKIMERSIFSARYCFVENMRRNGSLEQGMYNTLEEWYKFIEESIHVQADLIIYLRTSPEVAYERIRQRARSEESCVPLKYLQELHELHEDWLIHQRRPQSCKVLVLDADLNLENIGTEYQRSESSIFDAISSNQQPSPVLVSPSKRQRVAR
Procedure: (§1) Pyrrolo-dC was dissolved in 10 mM PBS at 20 mM concentration. CEST MRI experiments were performed on an 11.7T Bruker Avance system as previously described (G. Liu et al., Contrast Media Mol Imaging 5, 162 (2010)). A modified RARE (TR/TE=6000/9.4 ms) including a magnetization transfer module (B1=4.7 μT/4000 ms) was used to acquire CEST weighted images. The absolute water resonant frequency shift was measured using a modified WASSR method, with the same parameters as in CEST imaging except TR=1.5 sec and saturation pulse of B1=0.5 μT/250 ms. Mean CEST-spectra were derived from a ROI for each sample, after B0 correction for each voxel using MatLab. MTR asymmetry (MTRasym)=100×(S^−Δω−S^+Δω/S0 was computed at different offsets Δω. 9L rat glioma, engineered to express Drosophila melanogaster 2′-deoxynucleoside kinase (Dm-dNK; 9L^Dm-dNK) and control, non-expressing cells (9L^wt), 5×10^6 cells per group, were incubated for 4 hours at cell-culture medium containing 2 mM pyrrolo-dC. Then, the cells were washed with PBS, lysed and fluorescence was measured in triplicates using a plate reader (lex355 nm/lem460 nm).

[1] = CEST MRI of pyrrolo-dC in PBS; assay type: physicochemical; details: 20 mM in PBS, 5.8 ppm, 11.7T
Procedure: as §1

[2] = Exchange rate estimation by QUEST method; assay type: physicochemical; details: pH 7.4, 37° C.; cytosine 2 ppm, 5FC 2.4 ppm
Procedure: The exchange rate of exchangeable protons with a frequency of 2 ppm for cytosine and 2.4 ppm for 5FC at pH=7.4 was measured using the modified Quantifying Exchange using Saturation Time (QUEST) method (McMahon, M. T. et al. Magn Reson Med 2006, 55, 836). In brief, the CEST contrast for samples containing 20 mM cytosine or 5FC (40 mM of amine protons) at pH 7.4 was measured with saturation delays of 0.5, 1, 1.5, 2, 3, 5, and 9.5 sec, using a saturation field strength of 5.9 μT (300 Hz) and a repetition time (TR) set to 10 sec, using the RARE imaging sequence described above. The calculated MTRasym values were then fit using numerical solutions to the Bloch-McConnel equations with an exchange rate (kex). The water T1w and T2w were experimentally determined as approximately 4 sec and 1.6 sec, respectively, using the saturation recovery spin echo method and the CPMG multi-echo spin echo sequence, respectively. The fixed model parameters were water solute R1s=0.71 Hz and solute R2s=39 Hz.

[3] = molecular target: T2, Escherichia coli CDase (CodA) (Escherichia coli, UniProt P25524); assay: Deamination by crude recombinant CDase extracts measured using CEST MRI; assay type: biochemical; details: 20 mM substrate, crude CDase extract, 37° C.
T2 construct: 6xHis (C); made in house; host or cells: E. coli BL21 (DE3), crude protein extract
T2 sequence (P25524 whole entry): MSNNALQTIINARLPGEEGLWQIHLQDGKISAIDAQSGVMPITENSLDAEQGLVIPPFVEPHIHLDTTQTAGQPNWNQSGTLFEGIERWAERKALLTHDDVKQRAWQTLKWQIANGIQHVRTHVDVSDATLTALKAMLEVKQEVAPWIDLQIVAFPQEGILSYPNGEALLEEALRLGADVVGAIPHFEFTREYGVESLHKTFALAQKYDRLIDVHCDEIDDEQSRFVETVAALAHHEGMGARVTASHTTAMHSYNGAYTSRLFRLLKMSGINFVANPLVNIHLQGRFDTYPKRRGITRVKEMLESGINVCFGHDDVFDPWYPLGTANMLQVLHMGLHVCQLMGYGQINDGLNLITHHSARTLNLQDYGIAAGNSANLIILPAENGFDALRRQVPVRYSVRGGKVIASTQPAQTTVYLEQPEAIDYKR
Procedure: FIGS. 9A-9D show monitoring of recombinant CDase activity using CEST MRI. (FIG. 9A) Western blot using an anti-six-histidine-tag antibody of protein extracts from E. coli engineered to express CD or HSV1-tk (TK). (FIG. 9B) Deamination of cytosine and 5FC (20 mM) by crude CDase extracts measured using CEST MRI at 37° C. and 9.4 T. Conversion was quantified as (1−MTR^tasym/MTR^0asym)×100%, where MTR^tasym/MTR^0asym are the contrasts at time t, and at t=0, respectively. (FIG. 9C, D) maps and statistical analysis (two tailed unpaired students t-test; n=3) of 20 mM (FIG. 9C) cytosine and (FIG. 9D) 5 FC incubated with CDase (0.6 ug crude protein) for 24 hours.
The gene encoding the E. coli Cytosine Deaminase (CDase, CodA) was obtained from the American Type Culture Collection (ATCC Cat. 4099). […] Both genes were sub-cloned into the pEXP5-CT expression vector (Invitrogen) in a reading frame with a C-terminal six-histidine tag under a T7 promoter. […] The recombinant proteins were expressed after induction in Magic Media™ (Invitrogen), and both could be detected with Western blot using an anti-6-histidine tag antibody. […]
Data processing was performed using custom-written scripts in MATLAB (Mathworks, Waltham, Mass.). CEST spectra were calculated from the mean of an ROI placed over each sample after B0 correction of the contrast on a per voxel basis. […]

HEK293FT cells [4] = assay: CEST MRI of culture media, CDase activity in HEK293FT cells; assay type: cell-based, Human; details: HEK-293FT; 7 mM cytosine or 10 mM 5FC
Excerpt: (§2) All MR images were acquired with a 9.4T Bruker Avance system equipped with a 15 mm sawtooth RF coil. A modified RARE sequence (TR=6.0 sec, effective TE=43.2 ms, RARE factor=16, slice thickness=0.7 mm, FOV=14×14 mm, matrix size=128×64, resolution=0.11×0.22 mm^2, and NA=2) including a magnetization transfer (MT) module (one CW pulse, B=[…] (150 Hz), 3 sec) was used to acquire CEST-weighted images from −6 ppm to 6 ppm (step=0.2 ppm) around the water resonance (0 ppm). The absolute water resonant frequency shift was measured using a Water Saturation Shift Reference (WASSR) (Kim, M. et al. Magnetic Resonance in Medicine 2009, 61, 1441) method modified (Liu, G. et al. Contrast Media Mol Imaging 2010, 5, 162) with Lorentzian analysis. […]
(§3) Data processing was performed using custom-written scripts in MATLAB (Mathworks, Waltham, Mass.). CEST spectra were calculated from the mean of an ROI placed over each sample after B0 correction of the contrast on a per voxel basis. The CEST signal was quantified using MTRasym at specific offsets of interest (i.e., &ω=+2 ppm for cytosine or +2.4 ppm for 5FC) using the definition: MTRasym=(S^−˜ω−S^+″ω)/S0, where and s[−˜ω, +Aω] is the water signal intensity in the presence of a saturation pulse at offsets ±Aω, and S0 is water signal intensity in the absence of a saturation pulse. […]

9L cells [5] = assay: CEST MRI of culture media, CDase activity in 9L cells; assay type: cell-based, Rat; details: CDase-expressing 9L cells, 48 h incubation
Excerpt: as §2, §3

HEK293FT cells [6] = assay: 19F NMR detection of conversion of 5FC to 5FU, HEK293FT cells; assay type: cell-based, Human; design: key: (−): no 5FU was detected; details: 24 hours, 10 mM 5FC
Procedure: (§4) For each cell type, the same number of transduced (CD) or non-transduced (wild type, WT) cells were plated into 6-well plates (5.6×10^6 HEK293FT cells, 10^6 9 L cells, and 1.4×10^6 C17.2 cells, respectively). Approximately 6 hours later, fresh culture medium containing 7 mM cytosine or 10 mM 5FC was added to the cells. Fifty microliters of the culture media were collected at different time points up to 24 hours for HEK293FT cells (i.e. 0.5, 4, 6, and 24 hours), and up to 48 hours for the other two cell lines (i.e., 0.5, 4, 6, 24, and 48 hours). These samples were then transferred into capillaries and measured for CEST signal at 2 ppm for cytosine and 2.4 ppm for 5FC.
Studies were performed using a 500 MHz Bruker NMR spectrometer. ^19F NMR spectra of the enzymatic mixture or aqueous solutions of 10 mM 5FC and 5FU standards (FIG. 30 a and b) were acquired using a single-pulse sequence with a flip angle of 90°, TR=5 sec, and NA=32, carried out at 25° C. with the spectra centered at the resonance frequency of 5FC. […] For the cell culture media incubated with 10 mM 5FC for 24 and 48 hours for all three cell types, the ^19F NMR spectrum was measured using the same protocol, except the number of averages was changed to 64 to improve SNR. 5FU peaks were only detected for HEK293FT cells after 24-hour and for 9L cells after 48 hours (FIG. 30 c,d). […]

9L cells [7] = assay: 19F NMR detection of conversion of 5FC to 5FU, 9L cells; assay type: cell-based, Rat; design: key: (−): no 5FU was detected; details: 10 mM 5FC
Procedure: as §4
(§5) Studies were performed using a 500 MHz Bruker NMR spectrometer. ^19F NMR spectra of the enzymatic mixture or aqueous solutions of 10 mM 5FC and 5FU standards (FIG. 30 a and b) were acquired using a single-pulse sequence with a flip angle of 90°, TR=5 sec, and NA=32, carried out at 25° C. with the spectra centered at the resonance frequency of 5FC. NMR data were processed and plotted using Topspin (Bruker, M A). For the cell culture media incubated with 10 mM 5FC for 24 and 48 hours for all three cell types, the ^19F NMR spectrum was measured using the same protocol, except the number of averages was changed to 64 to improve SNR. 5FU peaks were only detected for HEK293FT cells after 24-hour and for 9L cells after 48 hours (FIG. 30 c,d). The complete results of the conversion detected using F NMR are listed in Table 1, as quantified by a conversion rate=peak area(5FU)/(peak area(5FU)+peak area(5FC)).

C17.2 cells = assay: 19F NMR detection of conversion of 5FC to 5FU, C17.2 cells; assay type: cell-based, mouse; design: key: (−): no 5FU was detected; details: 10 mM 5FC
Procedure: as §4, §5

HEK293FT = assay: Cell proliferation assay, HEK293FT; assay type: cell-based, Human; details: CD-transduced HEK293FT, 10 mM 5FC, 40 hours
Procedure: (§6) Both wild type- and CD-transduced cells were plated in 96-well cell culture plates to reach a sufficient cell number before 5FC treatment. Then media were replaced with media containing 10 mM 5FC. After 40 hours of incubation, cell viability was determined using a […] assay kit (Invitrogen).

9L = assay: Cell proliferation assay, 9L; assay type: cell-based, Rat; details: CD-transduced 9L, 10 mM 5FC, 40 hours
Procedure: as §6

9L^HSV1-tk cells = assay: In vitro uptake assay; assay type: cell-based, rat; details: 1 and 3 h of incubation, 1 μCi
Procedure: One million cells (9L^wt and 9L^HSV1-tk in triplicates) were incubated in […] medium containing 1 μCi [^125I]FIAU at 37° C. for 1 and 3 h. Cells were pelleted by centrifugation and washed 3 times with cold PBS. Gamma counter was used to monitor the radioactivity of the incubating medium and the incubated cells. [^125I]FIAU uptake was determined as the relative radioactivity (in percentage) of the cells to that of the incubating [^125I]FIAU medium (without cells).

HSV1-TK = molecular target: T3, HSV1-TK (Human herpesvirus 1, UniProt P0DTH5); assay: SPECT/CT imaging of HSV1-TK expression; assay type: in vivo, mice; details: 3 h after iv injection
T3 construct: V5; expressed in transfected cells; host or cells: 9L rat glioma cells transfected with pcDNA3.1-HSV1-tk, single G418-selected clone, implanted in NOD-SCID mouse brain
T3 sequence (P0DTH5 whole entry): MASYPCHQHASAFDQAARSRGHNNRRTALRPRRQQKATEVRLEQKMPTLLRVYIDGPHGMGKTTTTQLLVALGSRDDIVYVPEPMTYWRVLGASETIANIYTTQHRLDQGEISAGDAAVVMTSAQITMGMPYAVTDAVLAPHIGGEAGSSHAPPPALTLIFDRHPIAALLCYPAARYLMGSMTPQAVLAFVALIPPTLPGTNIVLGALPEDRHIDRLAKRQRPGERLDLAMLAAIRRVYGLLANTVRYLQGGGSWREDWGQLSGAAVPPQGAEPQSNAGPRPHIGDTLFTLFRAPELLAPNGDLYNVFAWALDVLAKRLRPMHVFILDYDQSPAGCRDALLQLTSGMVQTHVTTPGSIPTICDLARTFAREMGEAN
Procedure: An X-SPECT small-animal SPECT/CT system (Gamma Medica-Ideas) was used for image acquisition as previously described (Nimmagadda et al., J. Nucl. Med. 2009, 50, 1124). Briefly, seven days after cell implantation, the mice were injected iv with 50.3 MBq (1.36 mCi) of ^[125I]FIAU. SPECT data were acquired 3 h after radiotracer injection, and the obtained images were coregistered with the corresponding 512 slice CT images. Fused SPECT/CT transaxial sections of 1 mm thickness were generated using Amira 5.2.0 software (Visage Imaging Inc.) showing the SPECT signal obtained from the brain.

## Cc1cc2cn([C@H]3C[C@H](O)[C@@H](CO)O3)c(=O)nc2[nH]1 [pyrrolo-dC, Pyrrolo-2′-deoxycytidine]
Dm-dNK
  fluorescence of lysate of incubated 9L^Dm-dNK cells: high fluorescence level
  fluorescence of lysate of incubated 9L^wt cells: no fluorescence was detected
[1]
  CEST contrast (MTRasym maps): high CEST contrast

## Nc1cc[nH]c(=O)n1 [cytosine]
[2]
  exchange rate (kex) of the amine protons, QUEST: 8.1×10^2 Hz
[3]
  conversion by recombinant CDase after 24 h: nearly complete
HEK293FT cells [4]
  incubation time at which a significant difference in MTRasym between transduced and nontransduced cells was observed: 4 h
9L cells [5]
  relative change in MTRasym: 50%

## Nc1nc(=O)[nH]cc1F [5FC, 5-fluorocytosine]
[3]
  conversion by recombinant CDase after 24 h: not the case
HEK293FT cells [6]; HEK293FT CD
  19F NMR conversion of 5FC to 5FU: 38.9%
HEK293FT cells [6]; HEK293FT WT
  19F NMR conversion of 5FC to 5FU: (−)
9L cells [7]; 9L CD, 24 hours
  19F NMR conversion of 5FC to 5FU: (−)
9L cells [7]; 9L CD, 48 hours
  19F NMR conversion of 5FC to 5FU: 8.5%
9L cells [7]; 9L WT, 24 hours
  19F NMR conversion of 5FC to 5FU: (−)
9L cells [7]; 9L WT, 48 hours
  19F NMR conversion of 5FC to 5FU: (−)
C17.2 cells; C17.2 CD, 24 hours
  19F NMR conversion of 5FC to 5FU: (−)
C17.2 cells; C17.2 CD, 48 hours
  19F NMR conversion of 5FC to 5FU: (−)
C17.2 cells; C17.2 WT, 24 hours
  19F NMR conversion of 5FC to 5FU: (−)
C17.2 cells; C17.2 WT, 48 hours
  19F NMR conversion of 5FC to 5FU: (−)
HEK293FT cells [4]
  incubation time at which a significant difference in MTRasym between transduced and nontransduced cells was observed: 24 h
9L cells [5]
  relative change in MTRasym: 12%
HEK293FT
  number of viable cells after 5FC treatment: considerable decrease in the number of viable cells
9L
  number of viable cells after 5FC treatment: considerable decrease in the number of viable cells

## O=c1[nH]c(=O)n([C@@H]2O[C@H](CO)[C@@H](O)[C@@H]2F)cc1[125I] [[^125I]FIAU]
9L^HSV1-tk cells
  uptake in 9L^HSV1-tk cells compared to 9L^wt cells: significant accumulation
HSV1-TK
  accumulation in tumors by SPECT/CT: only at the ^9LHSV1-tk tumor
